These results are taken from PMC4391372 (Journal of agricultural and food chemistry, 2011).

SMILES strings stand for the structures.

The assay has as its target T1, hTAS2R31 (Homo sapiens, UniProt P59538).
T1 sequence (P59538 1-309): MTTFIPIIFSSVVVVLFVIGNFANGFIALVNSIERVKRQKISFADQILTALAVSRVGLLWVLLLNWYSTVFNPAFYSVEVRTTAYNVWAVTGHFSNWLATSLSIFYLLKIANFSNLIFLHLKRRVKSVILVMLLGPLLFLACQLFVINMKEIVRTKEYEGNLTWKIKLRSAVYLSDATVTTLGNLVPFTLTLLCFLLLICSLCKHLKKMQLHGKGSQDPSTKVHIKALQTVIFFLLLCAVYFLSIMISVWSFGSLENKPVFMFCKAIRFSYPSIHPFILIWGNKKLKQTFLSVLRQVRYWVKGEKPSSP
Put plainly: HEK-293T cell-based receptor assay.

For `COc1cc(O)c2c(c1)O[C@H](c1ccc(O)cc1)CC2=O` [compound 2, sakuranetin], the IC50 worked out at 5.5 ± 2.5 µM.
In the case of `COc1cc2c(c(O)c1OC)C(=O)C[C@@H](c1ccc(O)cc1)O2` [compound 9, 6-methoxysakuranetin], the concentration for half-maximal inhibition (IC50) is 10.2 ± 5.4 µM.
`COc1cc(-c2cc(=O)c3c(O)c(OC)c(O)cc3o2)ccc1O` [compound 10, jaceosidin] yielded an IC50 of 11.7 ± 6 µM.

Broadly, the IC50 is the concentration needed to halve the response being measured. Low readings indicate greater potency in that assay, high ones weaker potency in that assay.
